Experimental findings from article PMC10525585, “Evaluation of the Antibacterial Effect of Aurone-Derived Triazoles on Staphylococcus aureus” (Antibiotics, 2023) are described below.

Usually IC50 stands for the point on the concentration scale where inhibition reaches its midpoint. As a reminder, the inhibition is the percentage by which the read-out fell short of the control. One may read the CC50 as the concentration that lowers cell viability or growth by half. A higher CC50 goes with better tolerance by the cells.

Structures are written as SMILES.

Data set [1] deals with methicillin-sensitive S. aureus ATCC 29213 (MSSA). The data set is described as follows: microbe, parasite or virus in culture. Particulars: for Max SI (CC50/IC50): HepG2 CC50 / MSSA IC50; for IC50 / inhibition at 100 µM: Staphylococcus aureus; for IC50: read-out: IC50 (µM) MSSA; for inhibition at 100 µM: read-out: MSSA inhibition (100µM). As to the method: MRSA strain ATCC 43300 and MSSA strain S. aureus ATCC 29213 were grown on Tryptic Soy Agar (TSA) plates. Before use, an isolated colony was transferred from the TSA plate into Tryptic Soy Broth (TSB) and incubated 18–24 h in a humidified incubator at 37 °C. To adjust for a standard concentration of bacteria, the turbidity of the culture was measured at 600 nm, and its optical density (OD600) adjusted to be in the range 0.08–0.12 which equates to a concentration of approximately 1 × 10^8 CFU/mL. This suspension was diluted 1:20 in TSB. […] MRSA strain S. aureus ATCC 43300 and MSSA strain S. aureus ATCC 29213 were used for all testing in this study.
The assay for anti-Staphylococcal activity of AT compounds was prepared in 96-well transparent, U-bottom plates. A series of 2-fold dilutions of AT concentrations was tested in triplicate, with each well containing 10 µL of prepared bacterium and 90 µL of AT mixture in CAMHB. […] Blank wells with only CAMHB, a negative control well with 10 µL of bacterium solution mixed into 90 µL CAMHB, a vehicle control well with bacteria mixed into 1% DMSO in CAMBH, and a positive cell death control with vancomycin (1 µL of stock 2 mg/mL solution in 89 µL CAMHB with 10 µL of bacteria) were included. The plate was incubated for 18–24 h at 37 °C in a humidified incubator. Before measurement, PrestoBlue^TM dye (Invitrogen, Carlsbad, CA, USA) was added (10 µL per well) and incubated for 1 h with aluminum foil covering the plate. A CLARIOstar® (BMG LABTECH, Cary, NC, USA) multi-mode plate reader was used to measure the fluorescence at wavelengths of 560 nm for excitation and 590 nm for emission. Inhibitory concentration (IC50) values were defined as half inhibitory concentration and were computed using GraphPad Prism version 9.1 software.

Data set [2] can be described thus: Cytotoxicity assay (PrestoBlue). It counts as cell-based, Human. The conditions noted are these: human, HepG2 cells (ATCC HB-8065), Table 1 and text; 24 h incubation.
The nature of data set [3]: Cytotoxicity assay (PrestoBlue). The conditions noted are these: human, HeLa cells (ATCC CCL-2). As to the method:
Human HeLa epithelial (ATCC CCL-2) and HepG2 liver epithelial (ATCC HB-8065) cell lines were used to determine toxicity of AT compounds for mammalian cells. The cells were grown in a complete culture medium of RPMI 1640 with 10% heat-inactivated fetal bovine serum (FBS) at 37 °C in 5% CO2 (95% room air) in a humidified incubator. Before use, attached cell monolayers, which had reached at least 90% confluency, were detached by trypsinization with trypsin-EDTA (0.25%) and resuspension in fresh complete culture media. For experiments, the stock concentration of 1 × 10^5 cells/mL (to achieve a final 1 × 10^4 cells/well concentration) was achieved by counting the trypsinized cells and adjusting to their final concentration for assays.
HeLa or HepG2 cells were pre-seeded into a 96-well transparent, flat bottom plate by adding a volume of 100 µL stock cell concentration (1 × 10^5 cells/mL) in complete culture media to each well. The plate was incubated overnight at 37 °C in a 5% CO2 (95% room air) humidified incubator. After the incubation and before mixing in the AT compounds, a 100 µL volume of fresh complete culture media was added to the pre-seeded wells. The 2-fold dilutions of AT compounds in triplicates were prepared on a separate 96-well plate. Once the dilution plate was prepared, dilutions were transferred into the pre-seeded plate to achieve the same concentrations of ATs as for the inhibition assay described above. The final inoculated plate was then returned to the 5% CO2 (95% room air) humidified incubator for an additional 24 h of incubation with the diluted ATs. Controls were blank wells containing only media, wells with cells and DMSO in complete culture media, and wells with cells and complete culture media only. Measurement of toxicity was analogous to the inhibition assay except that 20 µL of PrestoBlue^TM was used and the incubation was 3–6 h before reading with the plate-reader. Cytotoxicity concentration (CC50) was defined as the concentration where half of the cells remained viable and was computed using GraphPad Prism.

For the next data set, the system named is pre-formed MSSA biofilms. The data set is described as follows: Biofilm assay (BacLight live/dead confocal imaging). The data set is classed as cell-based, Staphylococcus aureus. The conditions noted are these: for Fold Change in Dead Cells / Fold Change in Total Cells / Percent Change in Dead Cells / Percent Change in Total Cells: versus mock-treated control; for Dead Cell Count / Living Cell Count / Total Cell Count: 48 h biofilm treated 24 h with 100 µM AT; for Dead Cell Count: control 96; for Living Cell Count: control 2124; for Total Cell Count: control 2220. As for the experimental part: To prepare AT-treated cultures, overnight bacterial cultures were used (adjusted to 1 × 10^8 CFU/mL) in BHI medium to grow biofilm in 35 mm MatTEK dishes with a 20 mm glass bottom well by adding 1500 µL of overnight bacteria per dish. The dishes were incubated at 37 °C in a humidified incubator for 48 h. The old media was refreshed by adding 1500 µL of BHI for the control, or the AT mixture (15 µL of AT stock with 1485 µL BHI to achieve 100 µM AT concentration), or DMSO mixture (15 µL DMSO with 1485 µL BHI) for negative control. The dishes were then incubated in a humidified incubator for an additional 24 h at 37 °C. The media was removed, and cells were washed twice with 500 µL PBS, followed by the addition of 50 µL BacLight^TM with 250 µL PBS for 15 min. Biofilms were imaged using a Zeiss AxioObserver microscope with an LSM700 confocal module (Carl Zeiss Microscopy, White Plains, NY, USA). To assess biofilm disruption, Fiji software version 2.14.0 was used. Initially, raw microscope images were imported, separating the color channels, as dead cells were stained fluorescent red and living cells were stained green. To allow particle counts, the color saturation threshold was set using the RenyiEntropy option to clear the images from potential noise. This step was followed by watershed separation, which separates potentially overlapping cells, and then particle analysis was completed using the 0.5–1.5 micron size as a guide. Biofilm disruption was quantified both by reductions in total bacterial cell numbers and increases in dead cell numbers.

For the next data set, the system named is MRSA. The data set is described as follows: Checkerboard assay with antibiotics. The data set is classed as cell-based, Staphylococcus aureus. The conditions noted are these: smallest ratio; <0.5 synergy, 0.5–4 no interaction, >4 antagonism. As to the method:
(§1) This preparation for the checkerboard assay was analogous to the antibacterial assay described above in that the standard (5 × 10^5 CFU/mL) concentration of bacteria in media was mixed with 2-fold dilutions of antibacterial agents to verify their inhibition potential. […] Control wells contained 10 µL of bacteria with 90 µL of CAMHB, and the negative control was bacteria in 1% DMSO and CAMHB. Incubation, staining with PrestoBlue^TM, and assessing cell viability are as described for the antibacterial assay above.

The next data set deals with MSSA. Put plainly: Checkerboard assay with antibiotics. The conditions noted are these: smallest ratio; <0.5 synergy, 0.5–4 no interaction, >4 antagonism. It counts as cell-based, Staphylococcus aureus. As to the method:
as §1

[4] abbreviates: CC50 (µM) HeLa, Table 1 and text, 24 h incubation.

`O=C(c1ccccc1O)c1n[nH]nc1-c1ccc(Cl)cc1` [AT106]: in data set [1], the “Max SI (CC50/IC50)” value stood at 12.99, the IC50 was found to be 5.44 µM and the inhibition at 100 µM is 87.4%. The compound also gave a CC50 at 24 h in data set [2] of over 60 µM. In data set [3] (setting [4]), this compound came in with a CC50 at 24 h of over 60 µM. The same compound came in with a cytotoxic concentration (CC50) at 24 h in data set [3] (CC50 HeLa (µM), Table S1) of 16.2 µM. In the data set on pre-formed MSSA biofilms (100 µM AT, 24 h), the “Fold Change in Dead Cells” value is -0.75, the “Fold Change in Total Cells” value is given as -0.8914, the “Percent Change in Dead Cells” value is recorded as -75.00% and the “Percent Change in Total Cells” value is on record as -89.14%. Moreover, in the data set on pre-formed MSSA biofilms, the “Dead Cell Count” value was 24, the “Living Cell Count” value worked out at 217 and the “Total Cell Count” value was determined as 241. Moreover, in the data set on MRSA, the “FICi with Daptomycin, MRSA” value is recorded as 0.05 and the “FICi with Vancomycin, MRSA” value was determined as 0.52. Moreover, in the data set with MSSA, the “FICi with Daptomycin, MSSA” value was found to be 0.25 and the “FICi with Vancomycin, MSSA” value was 0.57.
Turning to `O=C(c1ccccc1O)c1n[nH]nc1-c1ccc(Br)s1` [AT137], in data set [1], the IC50 was 3.09 µM and the inhibition at 100 µM was 87.5%. The CC50 at 24 h in data set [2] came out at 39.8 µM. The same compound had a CC50 at 24 h in data set [3] (setting [4]) of 2.84 µM. It took 12.7 µM to reach half-maximal cytotoxicity in data set [3] (CC50 HeLa (µM), Table S1) (CC50 at 24 h). Further, in the data set on pre-formed MSSA biofilms (100 µM AT, 24 h), the “Fold Change in Dead Cells” value is -0.8021, the “Fold Change in Total Cells” value was -0.9347, the “Percent Change in Dead Cells” value is recorded as -80.21% and the “Percent Change in Total Cells” value is -93.47%. Besides, in the data set on pre-formed MSSA biofilms, the “Dead Cell Count” value turned out to be 19, the “Living Cell Count” value was 126 and the “Total Cell Count” value was determined as 145. In the data set on MRSA, the “FICi with Daptomycin, MRSA” value is reported as 0.19 and the “FICi with Vancomycin, MRSA” value is listed as 1.13. In the data set with MSSA, the “FICi with Daptomycin, MSSA” value is on record as 0.38 and the “FICi with Vancomycin, MSSA” value came out at 1.5.
On to `O=C(c1ccccc1O)c1n[nH]nc1-c1cccc(C(F)(F)F)c1` [AT116], for which, in data set [1], the “Max SI (CC50/IC50)” value amounted to 16.01, the IC50 came to 3.18 µM and the inhibition at 100 µM was found to be 82%. The CC50 at 24 h in data set [2] is 50.9 µM. In data set [3] (setting [4]), the CC50 at 24 h came to 56.8 µM. In data set [3] (CC50 HeLa (µM), Table S1), half-maximal cytotoxicity (CC50 at 24 h) was put at 11.7 µM. In the data set on pre-formed MSSA biofilms (100 µM AT, 24 h), the “Fold Change in Dead Cells” value is 2.417, the “Fold Change in Total Cells” value is given as -0.4212, the “Percent Change in Dead Cells” value is listed as 241.67% and the “Percent Change in Total Cells” value is -42.12%. Moreover, in the data set on pre-formed MSSA biofilms, the “Dead Cell Count” value is 328, the “Living Cell Count” value was 957 and the “Total Cell Count” value amounted to 1285. Besides, the “disruption of MSSA biofilms” value in the data set on pre-formed MSSA biofilms (pre-formed biofilm, 100 µM AT, 24 h) is “successfully disrupted MSSA biofilms”. In the data set on MRSA, the “FICi with Daptomycin, MRSA” value was 0.05 and the “FICi with Vancomycin, MRSA” value was 1.03. For the same compound, in the data set with MSSA, the “FICi with Daptomycin, MSSA” value turned out to be 0.28.
